Measurements taken from ChEMBL document CHEMBL1641539 (Bioorg Med Chem Lett, 2011).

Experiments:
[1] = biological target: MAP kinase-activated protein kinase 5 (Homo sapiens) (UniProt Q8IW41); assay: Residual activity of human PRAK at 10 uM after 60 mins by TR-FRET assay
[2] = biological target: Homeodomain-interacting protein kinase 1 (Homo sapiens) (UniProt Q86Z02); assay: Inhibition of human HIPK1 at 10 uM after 60 mins by TR-FRET assay; values are per cent of control
[3] = biological target: Muscle, skeletal receptor tyrosine-protein kinase (Homo sapiens) (UniProt O15146); assay: Inhibition of human MuSK at 10 uM after 60 mins by TR-FRET assay; values are per cent of control
[4] = biological target: Tyrosine-protein kinase Blk (Mus musculus) (UniProt P16277); assay: Inhibition of mouse Blk at 10 uM after 60 mins by TR-FRET assay; values are per cent of control
[5] = system: Tyrosine-protein kinase BTK (Homo sapiens), Q06187 [R28H]; assay: Inhibition of human BTK R28H mutant at 10 uM after 60 mins by TR-FRET assay; values are per cent of control
[6] = biological target: Discoidin domain-containing receptor 2 (Homo sapiens) (UniProt Q16832); assay: Inhibition of human DDR2 at 10 uM after 60 mins by TR-FRET assay; values are per cent of control
[7] = biological target: PAS domain-containing serine/threonine-protein kinase (Homo sapiens) (UniProt Q96RG2); assay: Inhibition of human PASK at 10 uM after 60 mins by TR-FRET assay; values are per cent of control
[8] = biological target: Serine/threonine-protein kinase PLK2 (Homo sapiens) (UniProt Q9NYY3); assay: Inhibition of human Snk at 10 uM after 60 mins by TR-FRET assay; conditions: values are per cent of control
[9] = system: Serine/threonine-protein kinase Chk2 (Homo sapiens), O96017 [R145W]; assay: Inhibition of human CHK2 R145W mutant at 10 uM after 60 mins by TR-FRET assay; values are per cent of control
[10] = biological target: Receptor-type tyrosine-protein kinase FLT3 (Homo sapiens) (UniProt P36888); assay: Inhibition of human Flt3 at 10 uM after 60 mins by TR-FRET assay; values are per cent of control
[11] = biological target: Cyclin-dependent kinase 1/cyclin B (Homo sapiens) (UniProt P06493+P14635+Q8WWL7+O95067); assay: Residual activity of human CDK1/cyclinB at 10 uM after 60 mins by TR-FRET assay
[12] = biological target: Rhodopsin kinase GRK7 (Homo sapiens) (UniProt Q8WTQ7); assay: Inhibition of human GRK7 at 10 uM after 60 mins by TR-FRET assay; values are per cent of control
[13] = biological target: Protein kinase C theta type (Homo sapiens) (UniProt Q04759); assay: Inhibition of human PKCtheta at 10 uM after 60 mins by TR-FRET assay; values are per cent of control
[14] = biological target: Ribosomal protein S6 kinase alpha-4 (Homo sapiens) (UniProt O75676); assay: Inhibition of human MSK2 at 10 uM after 60 mins by TR-FRET assay; conditions: values are per cent of control
[15] = biological target: Ephrin type-B receptor 4 (Homo sapiens) (UniProt P54760); assay: Inhibition of human EphB4 at 10 uM after 60 mins by TR-FRET assay; values are per cent of control
[16] = biological target: Tyrosine-protein kinase receptor UFO (Homo sapiens) (UniProt P30530); assay: Inhibition of human Axl at 10 uM after 60 mins by TR-FRET assay; values are per cent of control
[17] = biological target: Tyrosine-protein kinase Lyn (Homo sapiens) (UniProt P07948); assay: Inhibition of human Lyn at 10 uM after 60 mins by TR-FRET assay; conditions: values are per cent of control
[18] = biological target: Mitogen-activated protein kinase kinase kinase 9 (Homo sapiens) (UniProt P80192); assay: Inhibition of human MLK1 at 10 uM after 60 mins by TR-FRET assay; values are per cent of control
[19] = biological target: RAC-beta serine/threonine-protein kinase (Homo sapiens) (UniProt P31751); assay: Inhibition of human PKBbeta at 10 uM after 60 mins by TR-FRET assay; values are per cent of control
[20] = biological target: Tyrosine-protein kinase ZAP-70 (Homo sapiens) (UniProt P43403); assay: Inhibition of human ZAP-70 at 10 uM after 60 mins by TR-FRET assay; values are per cent of control
[21] = biological target: Tyrosine-protein kinase Mer (Homo sapiens) (UniProt Q12866); assay: Inhibition of human Mer at 10 uM after 60 mins by TR-FRET assay; values are per cent of control
[22] = biological target: Casein kinase II subunit alpha' (Homo sapiens) (UniProt P19784); assay: Inhibition of human CK2a2 at 10 uM after 60 mins by TR-FRET assay; values are per cent of control
[23] = biological target: T1, Aurora kinase A (Homo sapiens) (UniProt O14965); assay: Inhibition of human Aurora-A at 10 uM after 60 mins by TR-FRET assay; values are per cent of control
T1 sequence (whole entry): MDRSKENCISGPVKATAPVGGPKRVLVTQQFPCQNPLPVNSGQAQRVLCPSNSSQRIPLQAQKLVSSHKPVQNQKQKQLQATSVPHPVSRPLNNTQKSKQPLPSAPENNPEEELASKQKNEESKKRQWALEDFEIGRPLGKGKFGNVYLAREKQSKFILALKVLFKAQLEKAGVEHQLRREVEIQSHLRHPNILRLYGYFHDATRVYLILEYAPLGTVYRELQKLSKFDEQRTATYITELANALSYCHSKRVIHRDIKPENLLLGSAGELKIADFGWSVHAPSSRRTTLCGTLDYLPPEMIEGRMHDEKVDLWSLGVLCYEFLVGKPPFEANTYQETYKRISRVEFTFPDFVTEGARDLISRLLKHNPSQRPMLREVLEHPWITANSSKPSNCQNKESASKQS

[24] = system: Proto-oncogene tyrosine-protein kinase receptor Ret (Homo sapiens), P07949 [V804L]; assay: Inhibition of human Ret V804L mutant at 10 uM after 60 mins by TR-FRET assay; values are per cent of control

Chain of Ribosomal protein S6 kinase alpha-4 (Homo sapiens) (O75676 whole entry, looked up): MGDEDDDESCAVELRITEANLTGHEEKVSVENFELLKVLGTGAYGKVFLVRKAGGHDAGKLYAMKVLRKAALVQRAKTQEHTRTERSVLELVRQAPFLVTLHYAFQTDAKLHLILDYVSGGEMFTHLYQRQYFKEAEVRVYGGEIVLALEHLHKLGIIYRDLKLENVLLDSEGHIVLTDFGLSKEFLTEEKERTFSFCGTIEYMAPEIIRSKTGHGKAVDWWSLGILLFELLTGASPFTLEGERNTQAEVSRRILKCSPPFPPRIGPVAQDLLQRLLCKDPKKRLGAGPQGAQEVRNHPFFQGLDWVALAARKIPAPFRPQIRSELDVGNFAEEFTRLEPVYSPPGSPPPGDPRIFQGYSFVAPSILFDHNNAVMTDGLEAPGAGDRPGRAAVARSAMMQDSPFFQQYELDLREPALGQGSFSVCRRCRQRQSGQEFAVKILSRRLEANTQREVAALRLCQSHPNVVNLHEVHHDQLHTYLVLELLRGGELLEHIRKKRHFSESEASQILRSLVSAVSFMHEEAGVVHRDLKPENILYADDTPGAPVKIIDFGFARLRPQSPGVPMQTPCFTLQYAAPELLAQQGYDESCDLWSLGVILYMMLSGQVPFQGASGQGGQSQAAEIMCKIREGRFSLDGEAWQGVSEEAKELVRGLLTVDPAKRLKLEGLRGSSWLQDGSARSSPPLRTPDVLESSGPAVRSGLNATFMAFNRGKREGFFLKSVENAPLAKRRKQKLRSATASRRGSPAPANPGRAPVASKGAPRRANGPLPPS
Chain of RAC-beta serine/threonine-protein kinase (Homo sapiens) (P31751 whole entry): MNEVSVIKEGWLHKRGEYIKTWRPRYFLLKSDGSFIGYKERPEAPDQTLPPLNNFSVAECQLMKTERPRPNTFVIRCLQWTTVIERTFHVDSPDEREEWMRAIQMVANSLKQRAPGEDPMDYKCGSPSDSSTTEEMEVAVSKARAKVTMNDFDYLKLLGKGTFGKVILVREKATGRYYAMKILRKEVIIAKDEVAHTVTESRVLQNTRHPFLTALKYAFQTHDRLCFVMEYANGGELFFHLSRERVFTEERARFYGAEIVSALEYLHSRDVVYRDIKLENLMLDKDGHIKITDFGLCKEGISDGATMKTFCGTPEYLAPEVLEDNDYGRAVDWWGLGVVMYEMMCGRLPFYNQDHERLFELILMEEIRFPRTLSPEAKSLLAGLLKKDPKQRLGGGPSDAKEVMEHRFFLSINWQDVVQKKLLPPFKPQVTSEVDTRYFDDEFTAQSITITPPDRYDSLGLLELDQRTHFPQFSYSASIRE
Chain of Serine/threonine-protein kinase Chk2 (Homo sapiens), O96017 [R145W] (O96017 whole entry R145W): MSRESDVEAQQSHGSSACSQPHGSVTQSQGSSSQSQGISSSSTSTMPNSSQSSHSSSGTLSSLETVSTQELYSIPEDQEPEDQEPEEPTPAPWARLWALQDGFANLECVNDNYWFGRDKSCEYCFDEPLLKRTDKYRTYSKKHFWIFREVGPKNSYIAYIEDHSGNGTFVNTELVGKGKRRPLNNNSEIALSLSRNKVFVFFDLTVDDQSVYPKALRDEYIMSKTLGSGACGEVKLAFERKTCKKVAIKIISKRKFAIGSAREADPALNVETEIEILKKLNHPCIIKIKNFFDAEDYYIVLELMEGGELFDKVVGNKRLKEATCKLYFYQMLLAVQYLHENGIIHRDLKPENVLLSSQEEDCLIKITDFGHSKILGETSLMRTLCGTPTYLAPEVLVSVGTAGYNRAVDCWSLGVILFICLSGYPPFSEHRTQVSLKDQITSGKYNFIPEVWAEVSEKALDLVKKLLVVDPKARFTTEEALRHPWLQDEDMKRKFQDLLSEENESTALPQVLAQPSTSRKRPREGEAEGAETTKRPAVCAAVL
Chain of Tyrosine-protein kinase Mer (Homo sapiens) (Q12866 whole entry): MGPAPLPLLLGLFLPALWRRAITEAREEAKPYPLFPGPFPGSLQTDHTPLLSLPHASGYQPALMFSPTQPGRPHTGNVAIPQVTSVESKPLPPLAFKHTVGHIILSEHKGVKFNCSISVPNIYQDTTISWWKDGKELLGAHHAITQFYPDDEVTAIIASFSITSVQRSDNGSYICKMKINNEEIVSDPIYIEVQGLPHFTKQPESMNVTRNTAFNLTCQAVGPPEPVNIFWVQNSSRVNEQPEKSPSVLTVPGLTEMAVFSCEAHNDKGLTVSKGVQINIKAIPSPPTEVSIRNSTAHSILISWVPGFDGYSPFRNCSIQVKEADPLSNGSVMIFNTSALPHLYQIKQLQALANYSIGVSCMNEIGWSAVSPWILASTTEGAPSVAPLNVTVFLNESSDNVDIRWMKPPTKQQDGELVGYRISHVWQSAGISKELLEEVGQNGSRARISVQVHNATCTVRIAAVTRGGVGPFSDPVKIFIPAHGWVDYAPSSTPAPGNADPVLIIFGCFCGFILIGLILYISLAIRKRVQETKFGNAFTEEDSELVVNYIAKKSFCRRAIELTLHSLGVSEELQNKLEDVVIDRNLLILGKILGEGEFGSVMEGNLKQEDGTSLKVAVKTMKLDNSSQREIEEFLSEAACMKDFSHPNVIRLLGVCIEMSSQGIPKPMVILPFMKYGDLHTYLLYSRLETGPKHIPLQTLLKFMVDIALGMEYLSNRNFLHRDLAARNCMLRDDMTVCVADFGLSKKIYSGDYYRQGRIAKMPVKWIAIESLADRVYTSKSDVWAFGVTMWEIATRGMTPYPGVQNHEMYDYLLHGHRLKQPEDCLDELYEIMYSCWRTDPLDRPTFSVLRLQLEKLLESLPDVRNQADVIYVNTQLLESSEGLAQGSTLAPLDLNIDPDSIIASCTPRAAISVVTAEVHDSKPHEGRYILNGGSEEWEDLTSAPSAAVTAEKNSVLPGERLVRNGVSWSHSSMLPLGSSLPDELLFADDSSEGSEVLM
Chain of Receptor-type tyrosine-protein kinase FLT3 (Homo sapiens) (P36888 whole entry): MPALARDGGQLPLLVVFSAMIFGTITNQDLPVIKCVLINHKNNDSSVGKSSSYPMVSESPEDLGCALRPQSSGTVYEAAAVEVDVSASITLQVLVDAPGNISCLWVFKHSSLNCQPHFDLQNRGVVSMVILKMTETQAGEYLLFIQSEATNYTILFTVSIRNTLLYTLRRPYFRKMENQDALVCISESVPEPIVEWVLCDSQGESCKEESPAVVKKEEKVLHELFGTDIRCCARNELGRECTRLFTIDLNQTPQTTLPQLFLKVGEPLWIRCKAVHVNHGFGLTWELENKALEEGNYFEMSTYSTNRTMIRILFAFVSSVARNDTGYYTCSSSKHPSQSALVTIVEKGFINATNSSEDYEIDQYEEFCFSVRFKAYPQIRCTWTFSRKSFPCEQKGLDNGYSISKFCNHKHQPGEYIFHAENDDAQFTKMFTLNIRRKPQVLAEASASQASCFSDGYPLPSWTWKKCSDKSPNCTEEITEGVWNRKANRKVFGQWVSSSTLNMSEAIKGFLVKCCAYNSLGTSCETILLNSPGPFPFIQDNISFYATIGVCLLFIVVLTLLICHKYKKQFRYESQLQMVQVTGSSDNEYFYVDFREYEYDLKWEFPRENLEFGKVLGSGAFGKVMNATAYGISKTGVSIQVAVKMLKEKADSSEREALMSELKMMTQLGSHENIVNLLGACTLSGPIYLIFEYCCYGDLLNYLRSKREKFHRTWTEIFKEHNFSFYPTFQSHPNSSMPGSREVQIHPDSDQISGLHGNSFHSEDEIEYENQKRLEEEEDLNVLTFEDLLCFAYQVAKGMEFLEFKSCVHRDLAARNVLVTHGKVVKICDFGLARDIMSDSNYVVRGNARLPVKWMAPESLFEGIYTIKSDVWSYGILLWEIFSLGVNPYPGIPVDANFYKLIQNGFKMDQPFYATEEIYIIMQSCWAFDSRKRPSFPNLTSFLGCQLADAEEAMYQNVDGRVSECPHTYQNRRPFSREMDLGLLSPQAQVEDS
Chain of Tyrosine-protein kinase receptor UFO (Homo sapiens) (P30530 whole entry): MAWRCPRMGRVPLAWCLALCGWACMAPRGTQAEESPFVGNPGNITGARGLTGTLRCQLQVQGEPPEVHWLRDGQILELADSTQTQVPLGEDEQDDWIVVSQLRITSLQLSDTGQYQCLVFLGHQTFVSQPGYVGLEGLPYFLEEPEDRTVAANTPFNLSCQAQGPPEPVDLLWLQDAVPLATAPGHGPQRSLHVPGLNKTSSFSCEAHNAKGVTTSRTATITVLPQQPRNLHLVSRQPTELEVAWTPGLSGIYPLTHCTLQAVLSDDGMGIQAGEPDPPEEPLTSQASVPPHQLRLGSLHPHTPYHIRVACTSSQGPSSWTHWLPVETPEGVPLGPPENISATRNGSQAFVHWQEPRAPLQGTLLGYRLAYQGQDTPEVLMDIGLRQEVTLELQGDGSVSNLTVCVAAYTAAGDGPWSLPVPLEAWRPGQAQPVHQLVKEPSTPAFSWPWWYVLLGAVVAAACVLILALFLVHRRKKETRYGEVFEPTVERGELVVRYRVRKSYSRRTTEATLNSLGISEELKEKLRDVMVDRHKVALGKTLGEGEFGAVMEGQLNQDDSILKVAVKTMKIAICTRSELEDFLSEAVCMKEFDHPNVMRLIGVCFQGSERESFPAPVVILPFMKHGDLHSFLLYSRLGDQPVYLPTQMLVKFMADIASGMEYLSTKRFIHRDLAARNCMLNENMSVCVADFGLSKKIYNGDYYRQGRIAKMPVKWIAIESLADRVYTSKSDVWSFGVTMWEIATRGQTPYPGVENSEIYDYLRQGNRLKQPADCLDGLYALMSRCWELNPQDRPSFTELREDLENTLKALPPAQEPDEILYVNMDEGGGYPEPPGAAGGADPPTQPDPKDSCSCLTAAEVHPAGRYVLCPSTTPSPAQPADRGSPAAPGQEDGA
Chain of Casein kinase II subunit alpha' (Homo sapiens) (P19784 whole entry, looked up): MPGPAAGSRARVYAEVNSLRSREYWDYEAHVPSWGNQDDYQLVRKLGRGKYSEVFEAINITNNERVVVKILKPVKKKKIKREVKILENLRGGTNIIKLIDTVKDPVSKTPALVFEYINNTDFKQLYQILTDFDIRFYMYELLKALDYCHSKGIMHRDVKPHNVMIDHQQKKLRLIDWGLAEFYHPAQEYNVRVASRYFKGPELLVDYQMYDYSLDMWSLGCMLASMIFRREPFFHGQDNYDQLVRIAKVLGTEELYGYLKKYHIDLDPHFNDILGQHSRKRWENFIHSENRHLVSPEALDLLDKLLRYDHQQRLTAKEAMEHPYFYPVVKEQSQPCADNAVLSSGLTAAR

## S=c1[nH]nc(-c2ccncc2)n1-c1ccc2ccccc2c1
[1]
  residual activity: 119%
[2]
  residual activity: 110%
[3]
  residual activity: 114%
[4]
  residual activity: 107%
[5]
  residual activity: 113%
[6]
  residual activity: 94%
[7]
  residual activity: 99%
[8]
  residual activity: 113%
[9]
  residual activity: 108%
[10]
  residual activity: 119%
[11]
  residual activity: 101%
[12]
  residual activity: 124%
[13]
  residual activity: 114%
[14]
  residual activity: 109%
[15]
  residual activity: 108%
[16]
  residual activity: 110%
[17]
  residual activity: 102%
[18]
  residual activity: 109%
[19]
  residual activity: 110%
[20]
  residual activity: 100%
[21]
  residual activity: 107%
[22]
  residual activity: 108%
[23]
  residual activity: 99%
[24]
  residual activity: 109%
